Measurements as given in patent US8895738B2, “Mesoionic pyrido [1, 2-A] pyrimidine pesticides” (E I du Pont de Nemours and Company, priority 2010, dated 2014).
Where a name gives a salt, the structure may show the parent alone.

Assays:
Format in all cases: in vivo
[1] = test system: corn planthopper (Peregrinus maidis); assay: Test D: control of corn planthopper on maize plant, contact and/or systemic; conditions: 144 h, assessed after 6 days, read-out: control efficacy: mortality; for mortality at 2 ppm: sprayed at 2 ppm; for mortality at 10 ppm: sprayed at 10 ppm; for mortality at 50 ppm: sprayed at 50 ppm; for mortality at 250 ppm: sprayed at 250 ppm
Method: For evaluating control of corn planthopper (Peregrinus maidis) through contact and/or systemic means, the test unit consisted of a small open container with a 3-4-day-old maize plant (spike) inside. White sand was added to the top of the soil prior to application. Test compounds were formulated and sprayed at 250, 50, 10 and/or 2 ppm, and replicated three times as described for Test A. After spraying, the test units were allowed to dry for 1 h before they were post-infested with ˜15-20 nymphs (18 to 21 day old) by sprinkling them onto the sand with a salt shaker. A black, screened cap was placed on the top of each test unit, and the test units were held for 6 days in a growth chamber at 22-24° C. and 50-70% relative humidity. Each test unit was then visually assessed for insect mortality.

[2] = test system: rice green leafhopper (Nephotettix virescens); assay: Test G: control of rice green leafhopper on rice plant; conditions: 120 h, assessed after 5 days, read-out: control efficacy: mortality; for mortality at 10 ppm: sprayed at 10 ppm; for mortality at 50 ppm: sprayed at 50 ppm
Method: For evaluating control of rice green leafhopper (Nephotettix virescens) through contact and/or systemic means, the test unit consisted of a plastic pot containing a 13-cm-tall rice plant covered with steel wire mesh (50 mesh) supported by a wire frame. A small amount of sand was added to form a good seal between the bottom of the wire mesh, the soil surface and the top edge of the plastic pot.
Test compounds were formulated and sprayed at 50, 10 and/or 2 ppm, and the tests were replicated three times in a manner similar to the one described for Test A. After spraying, the test units were allowed to dry for 2 h before they were post-infested with 10 green leafhoppers (3rd instar nymphs, 7-9 days post-hatch). After 5 days, each test unit was visually assessed for insect mortality.

[3] = test system: potato leafhopper (Empoasca fabae); assay: Test E: control of potato leafhopper on Soleil bean plant, contact and/or systemic; conditions: 144 h, assessed after 6 days, read-out: control efficacy: mortality; for mortality at 10 ppm: sprayed at 10 ppm; for mortality at 50 ppm: sprayed at 50 ppm; for mortality at 2 ppm: sprayed at 2 ppm
Method: For evaluating control of potato leafhopper (Empoasca fabae) through contact and/or systemic means, the test unit consisted of a small open container with a 5-6-day-old Soleil bean plant (primary leaves emerged) inside. White sand was added to the top of the soil and one of the primary leaves was excised prior to application.
Test compounds were formulated and sprayed at 250, 50, 10 and/or 2 ppm, and the tests were replicated three times as described for Test A. After spraying, the test units were allowed to dry for 1 h before they were post-infested with 5 potato leafhoppers (18-21-day-old adults). A black, screened cap was placed on the top of each test unit, and the test units were held for 6 days in a growth chamber at 24° C. and 70% relative humidity. Each test unit was then visually assessed for insect mortality.

[4] = test system: rice brown planthopper (Nilaparvata lugens); assay: Test H: control of rice brown planthopper on rice plant; conditions: 120 h, assessed after 5 days, read-out: control efficacy: mortality; for mortality at 2 ppm: sprayed at 2 ppm; for mortality at 10 ppm: sprayed at 10 ppm
Method: For evaluating control of rice brown planthopper (Nilaparvata lugens) through contact and/or systemic means, the test unit consisted of a plastic pot containing a 13-cm-tall rice plant covered with steel wire mesh (50 mesh) supported by a wire frame. A small amount of sand was added to form a good seal between the bottom of the wire mesh, the soil surface and the top edge of the plastic pot.
Test compounds were formulated and sprayed at 10, 2 and/or 0.4 ppm, and the tests were replicated three times in a manner similar to the one described for Test A. After spraying, the test units were allowed to dry for 2 h before they were post-infested with 10 brown planthoppers (3rd instar nymphs, 7-9 days post-hatch). After 5 days, each test unit was visually assessed for insect mortality.

[5] = test system: cotton melon aphid (Aphis gossypii); assay: Test C: control of cotton melon aphid on cotton plant, contact and/or systemic; conditions: sprayed at 50 ppm
Text: For evaluating control of cotton melon aphid (Aphis gossypii) through contact and/or systemic means, the test unit consisted of a small open container with a 6-7-day-old cotton plant inside. This was pre-infested with 30-40 insects on a piece of leaf according to the cut-leaf method described for Test B, and the soil of the test unit was covered with a layer of sand.
Test compounds were formulated and sprayed at 250 and/or 50 ppm as described for Test B. The applications were replicated three times. After spraying, the test units were maintained in a growth chamber and then visually rated as described for […].

[6] = test system: green peach aphid (Myzus persicae); assay: Test B: control of green peach aphid on radish plant, contact and/or systemic; conditions: 144 h, assessed after 6 days; for mortality at 50 ppm: sprayed at 50 ppm
Text: For evaluating control of green peach aphid (Myzus persicae) through contact and/or systemic means, the test unit consisted of a small open container with a 12-15-day-old radish plant inside. This was pre-infested by placing on a leaf of the test plant 30-40 aphids on a piece of leaf excised from a culture plant (cut-leaf method). The aphids moved onto the test plant as the leaf piece desiccated. After pre-infestation, the soil of the test unit was covered with a layer of sand.
Test compounds were formulated and sprayed at 250, 50 and/or 10 ppm as described for Test A. The applications were replicated three times. After spraying of the formulated test compound, each test unit was allowed to dry for 1 h and then a black, screened cap was placed on top. The test units were held for 6 days in a growth chamber at 19-21° C. and 50-70% relative humidity. Each test unit was then visually assessed for insect mortality.

O=c1c(-c2ccc(F)cc2)c([O-])[n+](Cc2cncnc2)c2ccccn12 [Compound 2, 3-(4-fluorophenyl)-2-hydroxy-4-oxo-1-(5-pyrimidinylmethyl)-4H-pyrido[1,2-a]pyrimidinium inner salt]
≥ 80%: mortality at 2 ppm [1] | mortality at 10 ppm [1] | mortality at 50 ppm [1] | mortality at 250 ppm [1] | mortality at 10 ppm [2] | mortality at 50 ppm [2] | mortality at 10 ppm [3] | mortality at 50 ppm [3] | mortality at 2 ppm [4] | mortality at 10 ppm [4]

COc1ccccc1-c1c([O-])[n+](Cc2cncnc2)c2ccccn2c1=O [Compound 4, 2-hydroxy-3-(2-methoxyphenyl)-4-oxo-1-(5-pyrimidinylmethyl)-4H-pyrido[1,2-a]pyrimidinium inner salt]
≥ 80%: mortality at 50 ppm [1] | mortality at 50 ppm [3]

COc1cccc(-c2c([O-])[n+](Cc3cncnc3)c3ccccn3c2=O)c1 [Compound 5, 2-hydroxy-3-(3-methoxyphenyl)-4-oxo-1-(5-pyrimidinylmethyl)-4H-pyrido[1,2-a]pyrimidinium inner salt]
≥ 80%: mortality at 10 ppm [1] | mortality at 50 ppm [1] | mortality at 10 ppm [3] | mortality at 50 ppm [3]

O=c1c(-c2ccc(F)cc2F)c([O-])[n+](Cc2cncnc2)c2ccccn12 [Compound 6, 3-(2,4-difluorophenyl)-2-hydroxy-4-oxo-1-(5-pyrimidinylmethyl)-4H-pyrido[1,2-a]pyrimidinium inner salt]
≥ 80%: mortality at 10 ppm [3] | mortality at 50 ppm [3]

O=c1c(-c2cccc(OC(F)(F)F)c2)c([O-])[n+](Cc2cncnc2)c2ccccn12 [Compound 7, 2-hydroxy-4-oxo-1-(5-pyrimidinylmethyl)-3-[3-(trifluoromethoxy)phenyl]-4H-pyrido[1,2-a]pyrimidinium inner salt]
≥ 80%: mortality at 2 ppm ([2]; sprayed at 2 ppm) | mortality at 10 ppm [2] | mortality at 50 ppm [2] | mortality at 50 ppm [5] | mortality at 2 ppm [3] | mortality at 10 ppm [3] | mortality at 50 ppm [3] | mortality at 0.4 ppm ([4]; sprayed at 0.4 ppm) | mortality at 2 ppm [4] | mortality at 10 ppm [4]

O=c1c(-c2cccc(Br)c2)c([O-])[n+](Cc2cncnc2)c2ccccn12 [Compound 8]
≥ 80%: mortality at 50 ppm [3]

O=c1c(-c2ccccc2F)c([O-])[n+](Cc2cncnc2)c2ccccn12 [Compound 9, 3-(2-fluorophenyl)-2-hydroxy-4-oxo-1-(5-pyrimidinylmethyl)-4H-pyrido[1,2-a]pyrimidinium inner salt]
≥ 80%: mortality at 50 ppm [1] | mortality at 10 ppm [3] | mortality at 50 ppm [3] | mortality at 10 ppm [4]

O=c1c(-c2cc(C(F)(F)F)ccc2F)c([O-])[n+](Cc2cncnc2)c2ccccn12 [Compound 10, 3-[2-fluoro-5-(trifluoromethyl)phenyl]-2-hydroxy-4-oxo-1-(5-pyrimidinylmethyl)-4H-pyrido[1,2-a]pyrimidinium inner salt]
≥ 80%: mortality at 10 ppm [1] | mortality at 50 ppm [1] | mortality at 250 ppm [1] | mortality at 10 ppm [2] | mortality at 50 ppm [2] | mortality at 50 ppm [3] | mortality at 2 ppm [4] | mortality at 10 ppm [4]

Cc1cccc(-c2c([O-])[n+](Cc3cncnc3)c3ccccn3c2=O)c1 [Compound 11, 2-hydroxy-3-(3-methylphenyl)-4-oxo-1-(5-pyrimidinylmethyl)-4H-pyrido[1,2-a]pyrimidinium inner salt]
≥ 80%: mortality at 10 ppm [1] | mortality at 50 ppm [1] | mortality at 10 ppm [2] | mortality at 50 ppm [2] | mortality at 10 ppm [3] | mortality at 50 ppm [3] | mortality at 10 ppm [4]

O=c1c(-c2cc(Cl)cc(C(F)(F)F)c2)c([O-])[n+](Cc2cncnc2)c2ccccn12 [Compound 15, 3-[3-chloro-5-(trifluoromethyl)phenyl]-2-hydroxy-4-oxo-1-(5-pyrimidinylmethyl)-4H-pyrido[1,2-a]pyrimidinium inner salt]
≥ 80%: mortality at 2 ppm [1] | mortality at 10 ppm [1] | mortality at 50 ppm [1] | mortality at 10 ppm ([6]; sprayed at 10 ppm) | mortality at 50 ppm [6] | mortality at 2 ppm [3] | mortality at 10 ppm [3] | mortality at 50 ppm [3] | mortality at 10 ppm [4]

O=c1c(-c2cc(Cl)cc(Cl)c2)c([O-])[n+](Cc2cncnc2)c2ccccn12 [Compound 16, 3-(3,5-dichlorophenyl)-2-hydroxy-4-oxo-1-(5-pyrimidinylmethyl)-4H-pyrido[1,2-a]pyrimidinium inner salt]
≥ 80%: mortality at 10 ppm [1] | mortality at 50 ppm [1] | mortality at 50 ppm [6]

O=c1c(-c2cc(Cl)c(F)c(Cl)c2)c([O-])[n+](Cc2cncnc2)c2ccccn12 [Compound 17, 3-(3,5-dichloro-4-fluorophenyl)-2-hydroxy-4-oxo-1-(5-pyrimidinylmethyl)-4H-pyrido[1,2-a]pyrimidinium inner salt]
≥ 80%: mortality at 10 ppm [1] | mortality at 50 ppm [1]

Cc1cc(-c2ccc(C#N)cc2C)cc(-c2c([O-])[n+](Cc3cncnc3)c3ccccn3c2=O)c1 [Compound 18, 3-(4′-cyano-5,2′-dimethyl[1,1′-biphenyl]-3-yl)-2-hydroxy-4-oxo-1-(5-pyrimidinylmethyl)-4H-pyrido[1,2-a]pyrimidinium inner salt]
≥ 80%: mortality at 50 ppm [1] | mortality at 50 ppm [3]

O=c1c(-c2cccc(Cl)c2)c([O-])[n+](Cc2cncnc2)c2ccccn12 [Compound 19, 3-(3-chlorophenyl)-2-hydroxy-4-oxo-1-(5-pyrimidinylmethyl)-4H-pyrido[1,2-a]pyrimidinium inner salt]
≥ 80%: mortality at 10 ppm [1] | mortality at 50 ppm [1] | mortality at 50 ppm [6] | mortality at 10 ppm [3] | mortality at 50 ppm [3]
